In ChEMBL document CHEMBL3217477, “Synthesis and biological evaluation of substituted - and -2,3-dihydrofuran naphthoquinones as potent anticandidal agents” (Medchemcomm, 2010):
Converted amounts (≈) assume the structure as drawn.

What was measured:
[1] = system: Candida dubliniensis; assay: Antifungal activity against Candida dubliniensis assessed as growth inhibition at 250 ug/mL after 24 hrs by hole plate diffusion method; format: functional; conditions: read-out: IZ
[2] = system: Candida tropicalis; assay: Antifungal activity against Candida tropicalis assessed as growth inhibition at 250 ug/mL after 24 hrs by hole plate diffusion method; format: functional; conditions: read-out: IZ
[3] = Cytotoxicity against mouse NIH/3T3 cells assessed as dead cells at 12.5 ug/mL after 72 hrs by Alamar Blue assay relative to control; format: cell-based; conditions: nih3t3, 72 h
[4] = system: Candida albicans; assay: Antifungal activity against Candida albicans assessed as growth inhibition after 24 hrs by microbroth dilution method; format: functional
[5] = system: Pichia kudriavzevii; assay: Antifungal activity against Candida krusei assessed as growth inhibition after 24 hrs by microbroth dilution method; format: functional
[6] = system: Kluyveromyces marxianus; assay: Antifungal activity against Candida kefyr assessed as growth inhibition after 24 hrs by microbroth dilution method; format: functional
[7] = system: Candida tropicalis; assay: Antifungal activity against Candida tropicalis assessed as growth inhibition after 24 hrs by microbroth dilution method; format: functional
[8] = system: Kluyveromyces marxianus; assay: Antifungal activity against Candida kefyr assessed as growth inhibition at 250 ug/mL after 24 hrs by hole plate diffusion method; format: functional; conditions: read-out: IZ
[9] = system: Candida dubliniensis; assay: Antifungal activity against Candida dubliniensis assessed as growth inhibition after 24 hrs by microbroth dilution method; format: functional
[10] = system: Candida parapsilosis; assay: Antifungal activity against Candida parapsilosis assessed as growth inhibition after 24 hrs by microbroth dilution method; format: functional; conditions: Lodderomyces parapsilosis
[11] = system: Pichia kudriavzevii; assay: Antifungal activity against Candida krusei assessed as growth inhibition at 250 ug/mL after 24 hrs by hole plate diffusion method; format: functional; conditions: read-out: IZ
[12] = Hemolytic activity in Swiss mouse erythrocytes at 50 ug/mL after 1 hr by spectrophotometric analysis relative to control; format: ADME, cell-based, Erythrocyte; conditions: read-out: Activity
[13] = system: Candida albicans; assay: Antifungal activity against Candida albicans ATCC 90028 assessed as growth inhibition after 24 hrs by microbroth dilution method; format: functional; conditions: ATCC 90028, 24 h
[14] = system: Candida parapsilosis; assay: Antifungal activity against Candida parapsilosis assessed as growth inhibition at 250 ug/mL after 24 hrs by hole plate diffusion method; format: functional; conditions: Lodderomyces parapsilosis, read-out: IZ
[15] = system: Candida albicans; assay: Antifungal activity against Candida albicans assessed as growth inhibition at 250 ug/mL after 24 hrs by hole plate diffusion method; format: functional; conditions: read-out: IZ

Compound | zone of inhibition at 250 µg/mL [1] [mm] | zone of inhibition at 250 µg/mL [2] [mm] | mortality [3] [%] | MIC [4] [µM] | MIC [5] [µM] | MIC [6] [µM] | MIC [7] [µM] | zone of inhibition at 250 µg/mL [8] [mm] | MIC [9] [µM] | MIC [10] [µM] | zone of inhibition at 250 µg/mL [11] [mm] | hemolysis at 1 h, 50 ug/mL [12] [%] | MIC [13] [µM] | zone of inhibition at 250 µg/mL [14] [mm] | zone of inhibition at 250 µg/mL [15] [mm]
O=C1C(=O)c2ccccc2C2=C1CC(c1ccccc1)O2 (stereo not drawn) | 11.9 | 5.7 | 0 | 45.2 (≈ 12.5 µg/mL) | 2.82 (≈ 0.779 µg/mL) | 5.65 (≈ 1.56 µg/mL) | 11.3 (≈ 3.12 µg/mL) | 10.8 | 5.65 (≈ 1.56 µg/mL) | 22.6 (≈ 6.25 µg/mL) | 12 | 1.98 | 90.5 (≈ 25 µg/mL) | 7.22 | 7.37
O=C1C2=C(OC(c3ccc(Cl)cc3)C2)C(=O)c2ccccc21 (stereo not drawn) | 0 | 2.49 | 0 | 10.1 (≈ 3.12 µg/mL) | 80.5 (≈ 25 µg/mL) | 80.5 (≈ 25 µg/mL) | 40.2 (≈ 12.5 µg/mL) | 5.27 | 40.2 (≈ 12.5 µg/mL) | 40.2 (≈ 12.5 µg/mL) | 6.14 | 1.16 | 80.5 (≈ 25 µg/mL) | 0 | 1.5
OC(Cn1cncn1)(Cn1cncn1)c1ccc(F)cc1F [FLUCONAZOLE] | 12.8 | 15 | – | 1.63 (≈ 0.499 µg/mL) | 104 (≈ 32 µg/mL) | 1.63 (≈ 0.499 µg/mL) | 313 (≈ 96 µg/mL) | 21.2 | 1.63 (≈ 0.499 µg/mL) | 1.63 (≈ 0.499 µg/mL) | 9.64 | – | 1.63 (≈ 0.499 µg/mL) | 10.4 | 13
O=C1C(=O)c2ccccc2C2=C1CC(c1ccc(Br)cc1)O2 (stereo not drawn) | 9.23 | 0 | 0 | 35.2 (≈ 12.5 µg/mL) | 4.39 (≈ 1.56 µg/mL) | 4.39 (≈ 1.56 µg/mL) | 8.79 (≈ 3.12 µg/mL) | 8.68 | 2.19 (≈ 0.778 µg/mL) | 8.79 (≈ 3.12 µg/mL) | 11.3 | 4.59 | 70.4 (≈ 25 µg/mL) | 7.75 | 6.17
